Test results published in US7704990B2, “Agents for preventing and treating disorders involving modulation of the RyR receptors” (The Trustees of Columbia University in the City of New York, priority 2005, dated 2010).

Experiments:
RyR1 [1] = target: T1, RyR1 (Mus musculus, UniProt E9PZQ0); experiment: RyR1 single-channel tracings from skeletal muscle of heart failure mice treated in vivo; conditions: mice with heart failure and increased muscle fatigue, 150 nM cytoplasmic Ca2+
T1 construct: single channel current trace of RyR1 from soleus muscle of control (wild-type) mouse; from tissue; host or cells: skeletal (soleus) muscle of mdx mice or of wild-type mice with heart failure
From the text: Embodiments A and C are single channel current traces of wild-type mice with heart failure treated with placebo (A) and JTV-519 (C). Embodiments B and D are amplitude histograms for wild-type mice with heart failure treated with placebo (B) and JTV-519 (D).
For the amplitude histograms in embodiment B and D, amplitude is represented on the x axis, and events indicates the number of channel openings. Po, To and Tc values correspond to the representative traces. Treatment as indicated on top of traces.

[2] = target: PKA phosphorylated RyR1 / calstabin1 (Homo sapiens, UniProt P21817); experiment: Calstabin1 binding to immunoprecipitated PKA phosphorylated skeletal RyR1 at increasing JTV519 concentrations
From the text: Sediment represents only calstabin bound to RyR.

RyR1 [3] = target: T1, RyR1; experiment: Single-channel recordings of RyR1 from soleus muscle of mdx mice; assay type: biochemical; conditions: 1.0 μM JTV-519, cytoplasmic Ca2+ 150 nM, vs untreated wild-type
From the text: Embodiments A and B are, respectively, a single channel current trace and an amplitude histogram of RyR1 from soleus muscle of a control (wild-type) mouse under resting conditions. Embodiments C and D are, respectively, a single channel current trace and an amplitude histogram of RyR1 from soleus muscle of an mdx mouse.
In FIG. 11, channel openings are represented as upward deflections; ‘c’ indicates the closed state; and 4 pA current open amplitude is indicated by dash. Upper traces represent 5 secs and lower traces 500 ms; dotted lines indicate subconductance states.
Increased Po in mdx mice is consistent with intracellular Ca^2+ leak. The amplitude histograms in embodiments B, D, and F show multiple subconductance states consistent with calstabin1 (FKBP12) depletion in RyR1 from mdx soleus muscle.

RyR1 / calstabin1 = target: T2, RyR1 / calstabin1 (Mus musculus, UniProt E9PZQ0); experiment: RyR1 PKA phosphorylation and calstabin1 bound to RyR1 in soleus muscle of heart failure mice; assay type: in vivo
T2 construct: increase of calstabin1 in the RyR1 complex in soleus muscles in vivo; from tissue; host or cells: soleus muscle of wild-type and calstabin2-/- mice with post-infarction heart failure
Description: Embodiment A are bar graphs of PKA phosphorylation of RyR1 at Ser-2844 in mice, which corresponds to Ser-2843 in humans.
Equivalent amounts of RyR1 were immunoprecipitated with an antibody against RyR1. Embodiment A are bar graphs show the amount of PKA phosphorylation of RyR1 at Ser-2844 in mice (corresponding to human Ser-2843). […] Embodiment B are bar graphs showing the amount of calstabin1 bound to RyR1 from wild-type or calstabin2^−/− mice treated with JTV519 or placebo. Mice were treated with JTV519 by implantable osmotic minipumps using a dose of 0.5 mg/kg/day.

soleus muscle = experiment: Soleus muscle fatigue time in mice with heart failure from myocardial infarction; assay type: in vivo, mouse
From the text: Soleus muscles from JTV519-treated wild-type mice or calstabin2^−/− mice with heart failure from myocardial infarction are more resistant to fatigue (P<0.05) compared to placebo-treated mice. After completion of treatment, soleus muscle was dissected and mounted in a tissue bath to assess isolated skeletal muscle function. Representative 50% of maximal tetanic force fatigue time tracings are shown for wild-type and calstabin2^−/− mice, treated with JTV519 or placebo, in embodiment A. In embodiment B are shown bar graph summarizing mean time to fatigue.

Sequence of PKA phosphorylated RyR1 / calstabin1 (P21817 whole entry): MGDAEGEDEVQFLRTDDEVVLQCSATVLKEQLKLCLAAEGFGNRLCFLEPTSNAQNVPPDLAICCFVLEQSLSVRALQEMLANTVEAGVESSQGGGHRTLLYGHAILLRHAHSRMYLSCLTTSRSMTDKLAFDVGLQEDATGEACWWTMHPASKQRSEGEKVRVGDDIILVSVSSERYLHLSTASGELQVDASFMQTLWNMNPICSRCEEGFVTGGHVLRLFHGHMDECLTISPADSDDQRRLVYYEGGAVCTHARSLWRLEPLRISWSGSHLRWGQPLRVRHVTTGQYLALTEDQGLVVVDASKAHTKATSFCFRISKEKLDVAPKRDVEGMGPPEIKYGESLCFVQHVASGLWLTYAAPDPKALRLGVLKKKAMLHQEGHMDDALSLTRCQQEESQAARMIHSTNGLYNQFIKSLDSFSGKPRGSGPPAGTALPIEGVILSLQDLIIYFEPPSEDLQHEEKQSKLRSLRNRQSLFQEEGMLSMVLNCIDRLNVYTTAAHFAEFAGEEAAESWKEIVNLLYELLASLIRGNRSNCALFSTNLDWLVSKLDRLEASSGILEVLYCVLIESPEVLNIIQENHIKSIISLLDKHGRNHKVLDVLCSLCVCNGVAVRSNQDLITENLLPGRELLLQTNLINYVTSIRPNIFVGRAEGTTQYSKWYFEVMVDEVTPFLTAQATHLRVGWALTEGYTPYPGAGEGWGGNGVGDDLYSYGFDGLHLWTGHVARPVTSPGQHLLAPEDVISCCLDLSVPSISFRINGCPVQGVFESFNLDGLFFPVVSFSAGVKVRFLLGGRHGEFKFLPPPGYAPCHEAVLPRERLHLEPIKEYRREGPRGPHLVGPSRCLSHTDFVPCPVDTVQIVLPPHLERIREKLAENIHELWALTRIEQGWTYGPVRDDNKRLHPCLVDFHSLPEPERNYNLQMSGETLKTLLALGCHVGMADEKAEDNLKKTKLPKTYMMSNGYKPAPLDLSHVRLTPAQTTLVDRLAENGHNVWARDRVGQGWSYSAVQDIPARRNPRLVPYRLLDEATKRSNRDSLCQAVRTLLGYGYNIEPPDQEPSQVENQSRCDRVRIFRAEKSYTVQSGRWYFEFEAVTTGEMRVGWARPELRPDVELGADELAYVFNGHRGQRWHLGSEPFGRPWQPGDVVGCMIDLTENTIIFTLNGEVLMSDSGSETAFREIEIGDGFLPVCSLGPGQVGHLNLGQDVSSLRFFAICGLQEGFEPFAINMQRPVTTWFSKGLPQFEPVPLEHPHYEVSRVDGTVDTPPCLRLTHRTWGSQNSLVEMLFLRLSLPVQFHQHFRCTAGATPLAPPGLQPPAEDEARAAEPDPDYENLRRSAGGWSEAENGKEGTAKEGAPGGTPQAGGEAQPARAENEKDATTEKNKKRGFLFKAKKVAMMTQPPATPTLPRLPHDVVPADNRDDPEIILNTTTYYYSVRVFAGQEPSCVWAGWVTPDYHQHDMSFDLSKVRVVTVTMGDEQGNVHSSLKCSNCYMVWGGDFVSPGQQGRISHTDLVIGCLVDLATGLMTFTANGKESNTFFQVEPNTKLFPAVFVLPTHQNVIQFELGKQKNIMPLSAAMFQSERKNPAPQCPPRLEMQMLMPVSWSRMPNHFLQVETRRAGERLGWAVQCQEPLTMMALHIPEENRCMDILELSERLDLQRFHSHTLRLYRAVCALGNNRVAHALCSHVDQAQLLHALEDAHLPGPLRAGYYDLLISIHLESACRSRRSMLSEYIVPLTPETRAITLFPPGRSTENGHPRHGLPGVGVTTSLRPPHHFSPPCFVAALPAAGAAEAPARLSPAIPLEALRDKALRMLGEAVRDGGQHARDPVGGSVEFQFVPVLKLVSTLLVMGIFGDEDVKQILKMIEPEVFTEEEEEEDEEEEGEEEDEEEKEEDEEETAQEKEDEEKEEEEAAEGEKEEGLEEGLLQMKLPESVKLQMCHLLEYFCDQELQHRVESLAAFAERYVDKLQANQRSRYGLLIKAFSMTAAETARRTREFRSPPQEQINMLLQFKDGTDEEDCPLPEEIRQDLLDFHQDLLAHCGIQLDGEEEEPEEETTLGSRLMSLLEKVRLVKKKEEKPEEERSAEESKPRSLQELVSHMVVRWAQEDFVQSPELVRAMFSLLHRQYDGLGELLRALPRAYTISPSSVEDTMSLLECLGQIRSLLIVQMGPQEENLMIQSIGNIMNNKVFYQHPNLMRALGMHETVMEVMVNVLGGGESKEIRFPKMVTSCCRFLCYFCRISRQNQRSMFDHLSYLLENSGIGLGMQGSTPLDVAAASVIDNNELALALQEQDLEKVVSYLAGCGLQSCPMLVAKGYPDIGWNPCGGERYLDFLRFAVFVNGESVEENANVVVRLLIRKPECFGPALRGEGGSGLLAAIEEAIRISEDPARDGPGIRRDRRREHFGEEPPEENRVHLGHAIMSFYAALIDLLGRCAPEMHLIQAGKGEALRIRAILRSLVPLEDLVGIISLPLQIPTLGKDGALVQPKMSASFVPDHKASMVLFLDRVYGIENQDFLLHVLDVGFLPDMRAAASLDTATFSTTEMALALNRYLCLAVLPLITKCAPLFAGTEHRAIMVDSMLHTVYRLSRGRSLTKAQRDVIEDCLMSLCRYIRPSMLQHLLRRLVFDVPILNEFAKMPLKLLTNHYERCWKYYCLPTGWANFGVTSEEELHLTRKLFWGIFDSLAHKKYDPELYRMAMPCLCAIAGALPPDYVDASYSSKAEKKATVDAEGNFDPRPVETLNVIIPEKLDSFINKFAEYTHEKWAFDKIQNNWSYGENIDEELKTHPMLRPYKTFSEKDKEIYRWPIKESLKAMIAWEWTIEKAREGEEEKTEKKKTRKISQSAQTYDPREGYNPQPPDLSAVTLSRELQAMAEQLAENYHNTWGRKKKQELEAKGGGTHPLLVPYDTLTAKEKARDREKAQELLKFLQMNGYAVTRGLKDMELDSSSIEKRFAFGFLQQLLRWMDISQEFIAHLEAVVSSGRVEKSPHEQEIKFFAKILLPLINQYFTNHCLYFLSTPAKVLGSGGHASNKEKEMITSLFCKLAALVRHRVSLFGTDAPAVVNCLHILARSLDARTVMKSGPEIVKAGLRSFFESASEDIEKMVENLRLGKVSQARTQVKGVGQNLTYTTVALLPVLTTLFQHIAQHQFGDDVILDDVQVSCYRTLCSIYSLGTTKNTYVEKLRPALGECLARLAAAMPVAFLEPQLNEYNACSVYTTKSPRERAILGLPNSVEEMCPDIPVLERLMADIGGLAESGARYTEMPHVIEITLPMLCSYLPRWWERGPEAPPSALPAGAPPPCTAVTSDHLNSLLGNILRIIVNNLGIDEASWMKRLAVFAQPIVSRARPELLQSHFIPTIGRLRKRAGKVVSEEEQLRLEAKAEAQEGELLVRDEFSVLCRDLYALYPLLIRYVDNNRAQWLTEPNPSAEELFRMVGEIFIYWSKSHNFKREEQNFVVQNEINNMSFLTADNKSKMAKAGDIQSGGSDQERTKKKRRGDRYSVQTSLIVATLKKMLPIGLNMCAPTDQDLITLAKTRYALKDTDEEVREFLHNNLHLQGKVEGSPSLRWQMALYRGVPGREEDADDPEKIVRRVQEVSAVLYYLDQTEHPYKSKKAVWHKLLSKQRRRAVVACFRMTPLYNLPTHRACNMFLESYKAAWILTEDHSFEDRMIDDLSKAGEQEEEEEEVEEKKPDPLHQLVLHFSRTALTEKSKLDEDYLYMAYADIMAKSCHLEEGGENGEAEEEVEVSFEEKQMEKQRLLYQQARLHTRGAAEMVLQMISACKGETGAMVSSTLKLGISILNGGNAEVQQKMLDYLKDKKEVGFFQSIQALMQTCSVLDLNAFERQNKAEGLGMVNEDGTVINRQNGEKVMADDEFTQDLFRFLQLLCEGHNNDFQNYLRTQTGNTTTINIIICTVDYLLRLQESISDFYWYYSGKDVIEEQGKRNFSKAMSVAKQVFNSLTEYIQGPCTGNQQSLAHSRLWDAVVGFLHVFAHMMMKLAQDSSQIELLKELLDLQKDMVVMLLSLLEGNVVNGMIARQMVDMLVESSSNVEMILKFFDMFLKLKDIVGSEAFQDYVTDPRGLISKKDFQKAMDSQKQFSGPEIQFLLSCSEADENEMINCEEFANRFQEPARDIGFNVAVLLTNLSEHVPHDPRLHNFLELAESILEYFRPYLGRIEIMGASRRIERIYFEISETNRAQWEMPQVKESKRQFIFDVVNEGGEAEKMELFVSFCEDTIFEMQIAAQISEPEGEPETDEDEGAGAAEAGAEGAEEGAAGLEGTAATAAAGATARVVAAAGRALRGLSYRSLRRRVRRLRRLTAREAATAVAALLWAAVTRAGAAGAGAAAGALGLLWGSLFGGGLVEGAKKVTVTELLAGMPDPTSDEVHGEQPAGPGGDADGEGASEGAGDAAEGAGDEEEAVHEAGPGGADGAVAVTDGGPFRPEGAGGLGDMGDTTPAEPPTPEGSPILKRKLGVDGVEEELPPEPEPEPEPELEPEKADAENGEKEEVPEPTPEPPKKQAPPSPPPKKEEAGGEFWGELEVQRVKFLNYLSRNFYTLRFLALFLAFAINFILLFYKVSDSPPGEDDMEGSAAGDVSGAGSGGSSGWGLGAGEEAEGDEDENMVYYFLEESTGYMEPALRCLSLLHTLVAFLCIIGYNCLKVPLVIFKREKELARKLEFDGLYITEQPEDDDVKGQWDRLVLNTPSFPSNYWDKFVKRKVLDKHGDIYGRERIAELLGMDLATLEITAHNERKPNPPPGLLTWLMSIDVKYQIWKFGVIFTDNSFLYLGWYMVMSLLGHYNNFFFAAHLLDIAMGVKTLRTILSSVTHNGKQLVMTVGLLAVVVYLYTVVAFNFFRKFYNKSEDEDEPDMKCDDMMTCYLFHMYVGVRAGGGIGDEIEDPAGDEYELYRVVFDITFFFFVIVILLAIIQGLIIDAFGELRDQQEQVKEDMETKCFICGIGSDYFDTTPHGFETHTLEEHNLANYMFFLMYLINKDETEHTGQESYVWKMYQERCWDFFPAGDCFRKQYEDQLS
Sequence of PKA phosphorylated RyR1 / calstabin1 (P62942 2-108 partner limits assumed): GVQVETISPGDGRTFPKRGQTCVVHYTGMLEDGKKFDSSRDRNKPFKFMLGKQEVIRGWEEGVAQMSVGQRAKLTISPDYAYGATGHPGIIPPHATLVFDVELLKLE

COc1ccc2c(c1)CN(C(=O)CCN1CCC(Cc3ccccc3)CC1)CCS2.Cl [JTV-519, 4-[3-(4-benzylpiperidin-1-yl)propionyl]-7-methoxy-2,3,4,5-tetrahydro-1,4-benzothiazepine monohydrochloride]
RyR1 channel gating in skeletal muscle (RyR1 [1]): normalized | resting heart rate or other ECG parameters (FKBP12.6+/- mice; 0.5 mg/kg per hour for 7 days, implanted osmotic mini-pump): no effect | plasma levels that prevent cardiac arrhythmias and sudden cardiac death (FKBP12.6+/- mice; FKBP12.6+/- mice, exercise testing and 0.5 mg/kg epinephrine): 1 µM | exercise-induced ventricular arrhythmias (FKBP12.6+/- mice; haploinsufficient calstabin (FKBP12.6)+/- mice): prevention | binding affinity of calstabin1 for PKA phosphorylated RyR1 ([2]; relative to non-PKA phosphorylated RyR1): restored | concentration that increased the binding affinity of calstabin for RyR ([2]; skeletal RyR1 with calstabin1, immunoblotting): ≥ 50 nM | RyR1 channel activity (RyR1 [3]): normal activity | calstabin1 in the RyR1 complex in soleus muscle (RyR1 / calstabin1; wild-type and calstabin2-/- mice, implantable osmotic minipumps, 0.5 mg/kg/day): highly significant increase | RyR1 PKA phosphorylation at Ser-2844 (RyR1 / calstabin1; wild-type animals): significant decrease | soleus muscle fatigue times (soleus muscle; calstabin2-/- knockout mice with heart failure): significantly improved | soleus muscle fatigue times (soleus muscle; wild-type mice with heart failure, vs placebo): improved soleus muscle fatigue times
